Assay results as given in ChEMBL document CHEMBL1201861, “Genomics of Drug Sensitity in Cancer screening data, Wellcome Trust Sanger Institute”.

system: Calu-6; experiment: cells; type: functional, cell-based, Homo sapiens; conditions: Homo sapiens, Calu-6;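 further: growth of human Calu-6 cells, read out by a cell viability assay, IC50 marking inhibition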
Description: SANGER: Inhibition of human Calu-6 cell growth in a cell viability assay.

SMILES | IC50 [µM]
CC(C)CCN1c2nc(Nc3cc(F)c(O)c(F)c3)ncc2N(C)C(=O)C1C (stereo not drawn) | > 5

system: D-247MG; experiment: cells; type: functional, cell-based, Homo sapiens; conditions: Homo sapiens, D-247MG
Description: SANGER: Inhibition of human D-247MG cell growth in a cell viability assay.

SMILES | IC50 [µM]
CC(C)CCN1c2nc(Nc3cc(F)c(O)c(F)c3)ncc2N(C)C(=O)C1C (stereo not drawn) | > 5

system: D-263MG; experiment: cells; type: functional, cell-based, Homo sapiens; conditions: Homo sapiens, D-263MG
Description: SANGER: Inhibition of human D-263MG cell growth in a cell viability assay.

SMILES | IC50 [µM]
CC(C)CCN1c2nc(Nc3cc(F)c(O)c(F)c3)ncc2N(C)C(=O)C1C (stereo not drawn) | > 5

system: DB; experiment: cells; type: functional, cell-based, Homo sapiens; conditions: Homo sapiens, DB
Description: SANGER: Inhibition of human DB cell growth in a cell viability assay.

SMILES | IC50 [µM]
CC(C)CCN1c2nc(Nc3cc(F)c(O)c(F)c3)ncc2N(C)C(=O)C1C (stereo not drawn) | 2.55

system: DU-4475; experiment: cells; type: functional, cell-based, Homo sapiens; conditions: Homo sapiens, DU-4475
Description: SANGER: Inhibition of human DU-4475 cell growth in a cell viability assay.

SMILES | IC50 [µM]
CC(C)CCN1c2nc(Nc3cc(F)c(O)c(F)c3)ncc2N(C)C(=O)C1C (stereo not drawn) | 0.504

system: EW-1; experiment: cells; type: functional, cell-based, Homo sapiens; conditions: Homo sapiens, EW-1;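 further: growth inhibition of the human EW-1 cell line, read out by a cell viability assay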
Description: SANGER: Inhibition of human EW-1 cell growth in a cell viability assay.

SMILES | IC50 [µM]
CC(C)CCN1c2nc(Nc3cc(F)c(O)c(F)c3)ncc2N(C)C(=O)C1C (stereo not drawn) | 2.75

system: HCC2218; experiment: cells; type: functional, cell-based, Homo sapiens; conditions: Homo sapiens, HCC2218;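 further: cell viability assay read-out, with IC50 given as the concentration that inhibits growth of the cell line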
Description: SANGER: Inhibition of human HCC2218 cell growth in a cell viability assay.

SMILES | IC50 [µM]
CC(C)CCN1c2nc(Nc3cc(F)c(O)c(F)c3)ncc2N(C)C(=O)C1C (stereo not drawn) | > 5

system: HEL; experiment: cells; type: functional, cell-based, Homo sapiens; conditions: Homo sapiens, HEL;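 further: growth inhibition of HEL cells, read out with a cell viability assay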
Description: SANGER: Inhibition of human HEL cell growth in a cell viability assay.

SMILES | IC50 [µM]
CC(C)CCN1c2nc(Nc3cc(F)c(O)c(F)c3)ncc2N(C)C(=O)C1C (stereo not drawn) | 2.7

system: HT; experiment: cells; type: functional, cell-based, Homo sapiens; conditions: Homo sapiens, HT
Description: SANGER: Inhibition of human HT cell growth in a cell viability assay.

SMILES | IC50 [µM]
CC(C)CCN1c2nc(Nc3cc(F)c(O)c(F)c3)ncc2N(C)C(=O)C1C (stereo not drawn) | > 5

system: HT-144; experiment: cells; type: functional, cell-based, Homo sapiens; conditions: Homo sapiens, HT-144
Description: SANGER: Inhibition of human HT-144 cell growth in a cell viability assay.

SMILES | IC50 [µM]
CC(C)CCN1c2nc(Nc3cc(F)c(O)c(F)c3)ncc2N(C)C(=O)C1C (stereo not drawn) | > 5

system: HuTu80; experiment: cells; type: functional, cell-based, Homo sapiens, HUTU-80; conditions: Homo sapiens, HuTu80;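 further: growth inhibition of HuTu80 human cells, determined with a cell viability readout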
Description: SANGER: Inhibition of human HUTU-80 cell growth in a cell viability assay.

SMILES | IC50 [µM]
CC(C)CCN1c2nc(Nc3cc(F)c(O)c(F)c3)ncc2N(C)C(=O)C1C (stereo not drawn) | 3.67

system: JAR; experiment: cells; type: functional, cell-based, Homo sapiens; conditions: Homo sapiens, JAR;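 further: growth inhibition of human JAR cells determined with a cell viability assay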
Description: SANGER: Inhibition of human JAR cell growth in a cell viability assay.

SMILES | IC50 [µM]
CC(C)CCN1c2nc(Nc3cc(F)c(O)c(F)c3)ncc2N(C)C(=O)C1C (stereo not drawn) | > 5

system: KM12; experiment: cells; type: functional, cell-based, Homo sapiens; conditions: Homo sapiens, KM12;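 further: KM12 cell growth inhibition, read out with a cell viability assay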
Description: SANGER: Inhibition of human KM12 cell growth in a cell viability assay.

SMILES | IC50 [µM]
CC(C)CCN1c2nc(Nc3cc(F)c(O)c(F)c3)ncc2N(C)C(=O)C1C (stereo not drawn) | 3.12

system: LB996-RCC; experiment: cells; type: functional, cell-based, Homo sapiens; conditions: Homo sapiens, LB996-RCC
Description: SANGER: Inhibition of human LB996-RCC cell growth in a cell viability assay.

SMILES | IC50 [µM]
CC(C)CCN1c2nc(Nc3cc(F)c(O)c(F)c3)ncc2N(C)C(=O)C1C (stereo not drawn) | > 5

system: LC-2-ad; experiment: cells; type: functional, cell-based, Homo sapiens; conditions: Homo sapiens, LC-2-ad;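 further: growth inhibition of human LC-2-ad cells, read out with a cell viability assay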
Description: SANGER: Inhibition of human LC-2-ad cell growth in a cell viability assay.

SMILES | IC50 [µM]
CC(C)CCN1c2nc(Nc3cc(F)c(O)c(F)c3)ncc2N(C)C(=O)C1C (stereo not drawn) | > 5

system: LNCaP-Clone-FGC; experiment: cells; type: functional, cell-based, Homo sapiens; conditions: Homo sapiens, LNCaP-Clone-FGC
Description: SANGER: Inhibition of human LNCaP-Clone-FGC cell growth in a cell viability assay.

SMILES | IC50 [µM]
CC(C)CCN1c2nc(Nc3cc(F)c(O)c(F)c3)ncc2N(C)C(=O)C1C (stereo not drawn) | 3.7

system: MZ1-PC; experiment: cells; type: functional, cell-based, Homo sapiens; conditions: Homo sapiens, MZ1-PC;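 further: cell viability assay measuring growth inhibition of human MZ1-PC cells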
Description: SANGER: Inhibition of human MZ1-PC cell growth in a cell viability assay.

SMILES | IC50 [µM]
CC(C)CCN1c2nc(Nc3cc(F)c(O)c(F)c3)ncc2N(C)C(=O)C1C (stereo not drawn) | 3.83

system: MZ7-mel; experiment: cells; type: functional, cell-based, Homo sapiens; conditions: Homo sapiens, MZ7-mel;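 further: growth inhibition of human MZ7-mel cells, measured by a cell viability assay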
Description: SANGER: Inhibition of human MZ7-mel cell growth in a cell viability assay.

SMILES | IC50 [µM]
CC(C)CCN1c2nc(Nc3cc(F)c(O)c(F)c3)ncc2N(C)C(=O)C1C (stereo not drawn) | > 5

system: NB10; experiment: cells; type: functional, cell-based, Homo sapiens; conditions: Homo sapiens, NB10;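 further: growth inhibition of NB10 cells, read out by a cell viability assay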
Description: SANGER: Inhibition of human NB10 cell growth in a cell viability assay.

SMILES | IC50 [µM]
CC(C)CCN1c2nc(Nc3cc(F)c(O)c(F)c3)ncc2N(C)C(=O)C1C (stereo not drawn) | 1.78

system: NB5; experiment: cells; type: functional, cell-based, Homo sapiens; conditions: Homo sapiens, NB5;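 further: growth inhibition of NB5 cells, read out as cell viability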
Description: SANGER: Inhibition of human NB5 cell growth in a cell viability assay.

SMILES | IC50 [µM]
CC(C)CCN1c2nc(Nc3cc(F)c(O)c(F)c3)ncc2N(C)C(=O)C1C (stereo not drawn) | > 5

system: NCI-H1092; experiment: cells; type: functional, cell-based, Homo sapiens; conditions: Homo sapiens, NCI-H1092;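 further: cell growth inhibition measured with a cell viability assay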
Description: SANGER: Inhibition of human NCI-H1092 cell growth in a cell viability assay.

SMILES | IC50 [µM]
CC(C)CCN1c2nc(Nc3cc(F)c(O)c(F)c3)ncc2N(C)C(=O)C1C (stereo not drawn) | > 5

system: NCI-H2126; experiment: cells; type: functional, cell-based, Homo sapiens; conditions: Homo sapiens, NCI-H2126;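 further: growth inhibition of the cancer cell line, determined with a cell viability readout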
Description: SANGER: Inhibition of human NCI-H2126 cell growth in a cell viability assay.

SMILES | IC50 [µM]
CC(C)CCN1c2nc(Nc3cc(F)c(O)c(F)c3)ncc2N(C)C(=O)C1C (stereo not drawn) | > 5

system: NCI-H226; experiment: cells; type: functional, cell-based, Homo sapiens; conditions: Homo sapiens, NCI-H226;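 further: cell viability read-out used to gauge growth inhibition of the cells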
Description: SANGER: Inhibition of human NCI-H226 cell growth in a cell viability assay.

SMILES | IC50 [µM]
CC(C)CCN1c2nc(Nc3cc(F)c(O)c(F)c3)ncc2N(C)C(=O)C1C (stereo not drawn) | > 5

system: NCI-H446; experiment: cells; type: functional, cell-based, Homo sapiens; conditions: Homo sapiens, NCI-H446;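 further: growth inhibition of NCI-H446 cells determined by a cell viability assay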
Description: SANGER: Inhibition of human NCI-H446 cell growth in a cell viability assay.

SMILES | IC50 [µM]
CC(C)CCN1c2nc(Nc3cc(F)c(O)c(F)c3)ncc2N(C)C(=O)C1C (stereo not drawn) | 3.68

system: NCI-H69; experiment: cells; type: functional, cell-based, Homo sapiens; conditions: Homo sapiens, NCI-H69;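 further: growth inhibition of the cell line, read out with a cell viability assay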
Description: SANGER: Inhibition of human NCI-H69 cell growth in a cell viability assay.

SMILES | IC50 [µM]
CC(C)CCN1c2nc(Nc3cc(F)c(O)c(F)c3)ncc2N(C)C(=O)C1C (stereo not drawn) | 2.72

system: SNU-5; experiment: cells; type: functional, cell-based, Homo sapiens; conditions: Homo sapiens, SNU-5;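 further: cell viability readout used to measure growth inhibition in human NCI-SNU-5 cells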
Description: SANGER: Inhibition of human NCI-SNU-5 cell growth in a cell viability assay.

SMILES | IC50 [µM]
CC(C)CCN1c2nc(Nc3cc(F)c(O)c(F)c3)ncc2N(C)C(=O)C1C (stereo not drawn) | > 5

system: NH-12; experiment: cells; type: functional, cell-based, Homo sapiens; conditions: Homo sapiens, NH-12;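 further: growth inhibition of NH-12 cells, read out with a cell viability assay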
Description: SANGER: Inhibition of human NH-12 cell growth in a cell viability assay.

SMILES | IC50 [µM]
CC(C)CCN1c2nc(Nc3cc(F)c(O)c(F)c3)ncc2N(C)C(=O)C1C (stereo not drawn) | 3.11

system: QIMR-WIL; experiment: cells; type: functional, cell-based, Homo sapiens; conditions: Homo sapiens, QIMR-WIL;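 further: growth inhibition of QIMR-WIL cells, read out with a cell viability assay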
Description: SANGER: Inhibition of human QIMR-WIL cell growth in a cell viability assay.

SMILES | IC50 [µM]
CC(C)CCN1c2nc(Nc3cc(F)c(O)c(F)c3)ncc2N(C)C(=O)C1C (stereo not drawn) | 2.08

system: RS4-11; experiment: cells; type: functional, cell-based, Homo sapiens; conditions: Homo sapiens, RS4-11;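 further: growth inhibition of RS4-11 cells, read out by a cell viability assay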
Description: SANGER: Inhibition of human RS4-11 cell growth in a cell viability assay.

SMILES | IC50 [µM]
CC(C)CCN1c2nc(Nc3cc(F)c(O)c(F)c3)ncc2N(C)C(=O)C1C (stereo not drawn) | > 5

system: RXF 393; experiment: cells; type: functional, cell-based, Homo sapiens; conditions: Homo sapiens, RXF 393;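 further: growth inhibition of human RXF 393 cells, read out with a cell viability assay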
Description: SANGER: Inhibition of human RXF393 cell growth in a cell viability assay.

SMILES | IC50 [µM]
CC(C)CCN1c2nc(Nc3cc(F)c(O)c(F)c3)ncc2N(C)C(=O)C1C (stereo not drawn) | > 5

system: Ramos-2G6-4C10; experiment: cells; type: functional, cell-based, Homo sapiens; conditions: Homo sapiens, Ramos-2G6-4C10;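 further: growth inhibition of the cell line, measured by a cell viability read-out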
Description: SANGER: Inhibition of human Ramos-2G6-4C10 cell growth in a cell viability assay.

SMILES | IC50 [µM]
CC(C)CCN1c2nc(Nc3cc(F)c(O)c(F)c3)ncc2N(C)C(=O)C1C (stereo not drawn) | 1.7

system: SCH; experiment: cells; type: functional, cell-based, Homo sapiens; conditions: Homo sapiens, SCH;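 further: growth inhibition of human SCH cells, read out in a cell viability assay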
Description: SANGER: Inhibition of human SCH cell growth in a cell viability assay.

SMILES | IC50 [µM]
CC(C)CCN1c2nc(Nc3cc(F)c(O)c(F)c3)ncc2N(C)C(=O)C1C (stereo not drawn) | > 5

system: SJSA-1; experiment: cells; type: functional, cell-based, Homo sapiens; conditions: Homo sapiens, SJSA-1;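 further: growth inhibition of human SJSA-1 cells, read out through a cell viability measurement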
Description: SANGER: Inhibition of human SJSA-1 cell growth in a cell viability assay.

SMILES | IC50 [µM]
CC(C)CCN1c2nc(Nc3cc(F)c(O)c(F)c3)ncc2N(C)C(=O)C1C (stereo not drawn) | 2.67

system: SK-LMS-1; experiment: cells; type: functional, cell-based, Homo sapiens; conditions: Homo sapiens, SK-LMS-1;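 further: growth inhibition of human SK-LMS-1 cells, read out with a cell viability assay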
Description: SANGER: Inhibition of human SK-LMS-1 cell growth in a cell viability assay.

SMILES | IC50 [µM]
CC(C)CCN1c2nc(Nc3cc(F)c(O)c(F)c3)ncc2N(C)C(=O)C1C (stereo not drawn) | > 5

system: SK-MEL-2; experiment: cells; type: functional, cell-based, Homo sapiens; conditions: Homo sapiens, SK-MEL-2;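 further: growth inhibition of human SK-MEL-2 cells measured with a cell viability assay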
Description: SANGER: Inhibition of human SK-MEL-2 cell growth in a cell viability assay.

SMILES | IC50 [µM]
CC(C)CCN1c2nc(Nc3cc(F)c(O)c(F)c3)ncc2N(C)C(=O)C1C (stereo not drawn) | > 5

system: SK-PN-DW; experiment: cells; type: functional, cell-based, Homo sapiens; conditions: Homo sapiens, SK-PN-DW;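 further: growth inhibition measured with a viability assay on these cells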
Description: SANGER: Inhibition of human SK-PN-DW cell growth in a cell viability assay.

SMILES | IC50 [µM]
CC(C)CCN1c2nc(Nc3cc(F)c(O)c(F)c3)ncc2N(C)C(=O)C1C (stereo not drawn) | > 5

system: SW684; experiment: cells; type: functional, cell-based, Homo sapiens; conditions: Homo sapiens, SW684;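 further: growth inhibition of human SW684 cells, measured by a cell viability assay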
Description: SANGER: Inhibition of human SW684 cell growth in a cell viability assay.

SMILES | IC50 [µM]
CC(C)CCN1c2nc(Nc3cc(F)c(O)c(F)c3)ncc2N(C)C(=O)C1C (stereo not drawn) | > 5

system: A498; experiment: cells; type: functional, cell-based, Homo sapiens; conditions: Homo sapiens, A498;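 further: growth inhibition of human A498 cells, read out with a cell viability assay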
Description: SANGER: Inhibition of human A498 cell growth in a cell viability assay.

SMILES | IC50 [µM]
CC(C)CCN1c2nc(Nc3cc(F)c(O)c(F)c3)ncc2N(C)C(=O)C1C (stereo not drawn) | > 5

system: ACN; experiment: cells; type: functional, cell-based, Homo sapiens; conditions: Homo sapiens, ACN;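 further: growth inhibition of the human ACN cell line, read out via cell viability testing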
Description: SANGER: Inhibition of human ACN cell growth in a cell viability assay.

SMILES | IC50 [µM]
CC(C)CCN1c2nc(Nc3cc(F)c(O)c(F)c3)ncc2N(C)C(=O)C1C (stereo not drawn) | 2.67

system: AM-38; experiment: cells; type: functional, cell-based, Homo sapiens; conditions: Homo sapiens, AM-38;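 further: growth inhibition of AM-38 cells of human origin, read out by a cell viability assay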
Description: SANGER: Inhibition of human AM-38 cell growth in a cell viability assay.

SMILES | IC50 [µM]
CC(C)CCN1c2nc(Nc3cc(F)c(O)c(F)c3)ncc2N(C)C(=O)C1C (stereo not drawn) | > 5

system: BT-474; experiment: cells; type: functional, cell-based, Homo sapiens; conditions: Homo sapiens, BT-474
Description: SANGER: Inhibition of human BT-474 cell growth in a cell viability assay.

SMILES | IC50 [µM]
CC(C)CCN1c2nc(Nc3cc(F)c(O)c(F)c3)ncc2N(C)C(=O)C1C (stereo not drawn) | > 5

system: Becker; experiment: cells; type: functional, cell-based, Homo sapiens; conditions: Homo sapiens, Becker;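 further: growth inhibition of Becker cells, read out with a cell viability assay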
Description: SANGER: Inhibition of human Becker cell growth in a cell viability assay.

SMILES | IC50 [µM]
CC(C)CCN1c2nc(Nc3cc(F)c(O)c(F)c3)ncc2N(C)C(=O)C1C (stereo not drawn) | 2.66

system: C8166; experiment: cells; type: functional, cell-based, Homo sapiens; conditions: Homo sapiens, C8166;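 further: growth inhibition of human C8166 cells measured by a cell viability assay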
Description: SANGER: Inhibition of human C8166 cell growth in a cell viability assay.

SMILES | IC50 [µM]
CC(C)CCN1c2nc(Nc3cc(F)c(O)c(F)c3)ncc2N(C)C(=O)C1C (stereo not drawn) | > 5

system: TE-10; experiment: cells; type: functional, cell-based, Homo sapiens; conditions: Homo sapiens, TE-10;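 further: growth inhibition of TE-10 cells, measured by a cell viability assay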
Description: SANGER: Inhibition of human TE-10 cell growth in a cell viability assay.

SMILES | IC50 [µM]
CC(C)CCN1c2nc(Nc3cc(F)c(O)c(F)c3)ncc2N(C)C(=O)C1C (stereo not drawn) | > 5

system: TE-6; experiment: cells; type: functional, cell-based, Homo sapiens; conditions: Homo sapiens, TE-6;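 further: growth inhibition of TE-6 cells, read out with a cell viability assay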
Description: SANGER: Inhibition of human TE-6 cell growth in a cell viability assay.

SMILES | IC50 [µM]
CC(C)CCN1c2nc(Nc3cc(F)c(O)c(F)c3)ncc2N(C)C(=O)C1C (stereo not drawn) | > 5

system: TE-9; experiment: cells; type: functional, cell-based, Homo sapiens; conditions: Homo sapiens, TE-9;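 further: cell growth inhibition, measured with a cell viability readout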
Description: SANGER: Inhibition of human TE-9 cell growth in a cell viability assay.

SMILES | IC50 [µM]
CC(C)CCN1c2nc(Nc3cc(F)c(O)c(F)c3)ncc2N(C)C(=O)C1C (stereo not drawn) | 2.17

system: U-87 MG; experiment: cells; type: functional, cell-based, Homo sapiens, U-87MG ATCC; conditions: Homo sapiens, U-87 MG;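 further: growth inhibition of the cells measured with a viability assay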
Description: SANGER: Inhibition of human U-87-MG cell growth in a cell viability assay.

SMILES | IC50 [µM]
CC(C)CCN1c2nc(Nc3cc(F)c(O)c(F)c3)ncc2N(C)C(=O)C1C (stereo not drawn) | > 5

system: UACC-257; experiment: cells; type: functional, cell-based, Homo sapiens; conditions: Homo sapiens, UACC-257
Description: SANGER: Inhibition of human UACC-257 cell growth in a cell viability assay.

SMILES | IC50 [µM]
CC(C)CCN1c2nc(Nc3cc(F)c(O)c(F)c3)ncc2N(C)C(=O)C1C (stereo not drawn) | > 5
